US4001325A, “α-Chloroacetanilide selective herbicides” (Diamond Shamrock Corporation, priority 1973, dated 1977)

Columns and labels:
Soybeans = experiment: Field preemergence test, phytotoxic effects on crop; assay type: in vivo, var. Davis
From the text: (§1) Test plots of fertilized, light sandy soil containing 0.7% organic matter are sprayed uniformly with aqueous suspensions prepared from emulsifiable concentrates containing 12%, by weight, of the test chemicals diluted to provide dosage rates of the test compounds corresponding to 2.0, 1.0, 0.5, and 0.25 pound per acre (lb/A). The plots are then sown with seeds of the following crop plants: sweet corn, cotton (Coker 413) and soybeans, var. Davis. Seeds of the following weed plants are planted: redroot pigweed, prickly sida, common lambsquarter, goosegrass and giant foxtail.
(§2) Three to four weeks after planting, percent control (plant kill) of the test plants is estimated, from a rating of 0 which denotes no injury to the plant up to 100 which denotes complete destruction. The herbicidal action of the test compounds obtained on the weed species is as follows:
(§3) Phytotoxic effects observed on the crop species is estimated with results as follows: […]

[1] = test system: broadleaf species: pigweed, velvetleaf, morningglory; experiment: Greenhouse preemergence herbicide test, broadleaves; assay type: in vivo; settings: two weeks after treatment, 20160 min
Description: (§4) To illustrate the preemergence herbicidal efficiency of the alkyl-substituted 2-chloro-N-propargylacetanilides of this invention, test formulations are prepared of each compound by mixing 20 ml of an acetone solution containing 0.125 g of chemical with 20 ml of water containing 0.01 g of Triton X-155 surfactant. The resultant formulations contain 3125 ppm of test compound, 50% by volume of acetone and 0.025% by weight of surfactant. Appropriate lower concentrations are obtained by diluting this formulation with surfactant-acetone solution so that the concentration of adjuvants is maintained at the original levels.
(§5) Seeds of three broadleaf and three grass species are planted in soil contained in 10 inch × 8 inch × 3 inch aluminum pans filled with 1.5 inches of composted soil. The broadleaf species are pigweed (Amaranthus retroflexus), velvetleaf (Abutilon theophrasti), and morningglory (Ipomea coccinea); the grasses are red millet (Panicum milliacem), green foxtail (Setaria viridis) and Japanese millet (Echinochloa frumentacea).
(§6) The seeded pans are sprayed so that the soil surface is uniformly covered with dilutions of the stock formulation providing dosage rates of the test compounds as shown in the following table.
(§7) Two weeks after treatment, percent control (plant kill) at each dosage rate is estimated with results as follows: […]

Yellow Foxtail [2] = experiment: Example 18 preemergence herbicide test in different soils, % control; assay type: in vivo; settings: three weeks
Description: To further illustrate the herbicidal activity of compounds of this invention in different types of soil as would be encountered in different crop growing localities, a preemergence herbicide test is conducted generally as outlined previously herein. Two light sandy soils are employed containing 0.7% and 1.8% organic matter (O.M.), respectively, along with two loam-type, heavier soils containing either 2.0% or 5-5.5% organic matter (O.M.).
The test plots are all sprayed uniformly with formulations of the test compounds providing 2.0, 1.0, 0.5, and 0.25 pound of active chemical per acre (lb/A).
Prior to treatment, the soil plots are sown to field corn, soybean, and grain sorghum crops and seeds of barnyard-grass and yellow foxtail.
Three weeks after planting, the percent control of plant growth is rated from 0% (no injury) to 100% (total destruction).

[3] = test system: grass species: red millet, green foxtail, Japanese millet; experiment: Greenhouse preemergence herbicide test, grasses; assay type: in vivo, Panicum milliacem, Setaria viridis, Echinochloa frumentacea; settings: pre-emergence, 336 h, two weeks after treatment
Description: as §4, §5, §6, §7

Barnyardgrass = experiment: Example 17 selective herbicidal activity in corn crop, weed kill; assay type: in vivo, Echinochloa crusgalli; settings: Echinochloa crus-galli, 3-4 weeks after planting
From the text: (§8) This example illustrates the selective herbicidal activity of two of the presently preferred compounds of this invention against various weed species in a corn crop.
(§9) Plots of light sandy soil, cleared of all weeds, are uniformly treated with aqueous dispersions prepared from an emulsifiable concentrate containing 2- 4 pounds of active ingredient per gallon. Diluted aqueous dispersions are applied as surface treatments at 2.0, 1.0, 0.5, and 0.25 pound of active ingredient per acre (lb/A).
(§10) The treated test plots are sown to corn and with seeds of the following weed species:
(§11) Three to four weeks after planting, the degree of damage to both the corn stands and the weed plants is assessed from a rating of 0% (no injury) to 100% (complete destruction).

Cotton = experiment: Field preemergence test, phytotoxic effects on crop; assay type: in vivo, cotton (Coker 413)
From the text: as §1, §2, §3

Goosegrass [4] = experiment: Field preemergence test, weed control; assay type: in vivo; settings: 3-4 weeks after planting
From the text: as §1
(§12) Three to four weeks after planting, percent control (plant kill) of the test plants is estimated, from a rating of 0 which denotes no injury to the plant up to 100 which denotes complete destruction. The herbicidal action of the test compounds obtained on the weed species is as follows: […]

Redroot Pigweed = experiment: Field preemergence test, weed control; assay type: in vivo; settings: 3-4 weeks after planting
From the text: as §1, §12

Giant Foxtail = experiment: Field preemergence test, weed control; assay type: in vivo; settings: 3-4 weeks after planting
From the text: as §1, §12

Common Lambsquarter = experiment: Field preemergence test, weed control; assay type: in vivo; settings: 3-4 weeks after planting
From the text: as §1, §12

Goosegrass [5] = experiment: Example 17 selective herbicidal activity in corn crop, weed kill; assay type: in vivo, Eleusine indica; settings: 3-4 weeks after planting
From the text: as §8, §9, §10, §11

Yellow Foxtail [6] = experiment: as above; assay type: in vivo, Setaria lutescens; settings: Setaria, 3-4 weeks after planting
From the text: as §8, §9, §10, §11

Corn = experiment: Field preemergence test, phytotoxic effects on crop; assay type: in vivo, sweet corn
From the text: as §1, §2, §3

C#CCN(C(=O)CCl)c1c(C)cccc1CC [Example 15, 2-Chloro-2'-methyl-6'-ethyl-N-propargylacetanilide]
% Crop Kill, Soybeans (Soybeans; 0.5 lb/A): 0%
% Crop Kill, Soybeans (Soybeans; 1.0 lb/A): 3%
% Crop Kill, Soybeans (Soybeans; 2.0 lb/A): 13%
% Control, Broadleaves ([1]; 0.5 lb/A): 0%
% Control, Broadleaves ([1]; 1.0 lb/A): 35%
% Control, Yellow Foxtail (Yellow Foxtail [2]; 0.5 lb/A, Heavy Soil 5-5.5% O.M.): 98%
% Control, Yellow Foxtail (Yellow Foxtail [2]; 0.5 lb/A, Medium Soil 2.0% O.M.): 100%
% Control, Yellow Foxtail (Yellow Foxtail [2]; 0.5 lb/A, Sand 0.7% O.M.): 45%
% Control, Yellow Foxtail (Yellow Foxtail [2]; 0.5 lb/A, Sand 1.8% O.M.): 30%
% Control, Yellow Foxtail (Yellow Foxtail [2]; 1.0 lb/A, Heavy Soil 5-5.5% O.M.): 100%
% Control, Yellow Foxtail (Yellow Foxtail [2]; 1.0 lb/A, Medium Soil 2.0% O.M.): 100%
% Control, Yellow Foxtail (Yellow Foxtail [2]; 1.0 lb/A, Sand 0.7% O.M.): 65%
% Control, Yellow Foxtail (Yellow Foxtail [2]; 1.0 lb/A, Sand 1.8% O.M.): 65%
% Control, Yellow Foxtail (Yellow Foxtail [2]; 2.0 lb/A, Heavy Soil 5-5.5% O.M.): 100%
% Control, Yellow Foxtail (Yellow Foxtail [2]; 2.0 lb/A, Medium Soil 2.0% O.M.): 100%
% Control, Yellow Foxtail (Yellow Foxtail [2]; 2.0 lb/A, Sand 0.7% O.M.): 90%
% Control, Yellow Foxtail (Yellow Foxtail [2]; 2.0 lb/A, Sand 1.8% O.M.): 85%
pest or weed control at 69.4927 g/ha ([3]; 0.062 lb/A): 0%
pest or weed control at 140.106 g/ha ([3]; 0.125 lb/A): 70%
pest or weed control at 280.212 g/ha ([3]; 0.25 lb/A): 85%
pest or weed control at 560.425 g/ha ([3]; 0.5 lb/A): 98%
pest or weed control at 1120.85 g/ha ([3]; 1.0 lb/A): 99%
mortality at 280.212 g/ha (Barnyardgrass; 0.25 lb/A): 88%
mortality at 560.425 g/ha (Barnyardgrass; 0.5 lb/A): 100%
mortality at 1120.85 g/ha (Barnyardgrass; 1.0 lb/A): 100%
mortality at 2241.7 g/ha (Barnyardgrass; 2.0 lb/A): 100%
% Crop Kill, Cotton (Cotton; 0.5 lb/A): 0%
% Crop Kill, Cotton (Cotton; 1.0 lb/A): 6%
% Crop Kill, Cotton (Cotton; 2.0 lb/A): 13%
% Weed Control, Goosegrass (Goosegrass [4]; 0.25 lb/A): 87%
% Weed Control, Goosegrass (Goosegrass [4]; 0.5 lb/A): 97%
% Weed Control, Goosegrass (Goosegrass [4]; 1.0 lb/A): 100%
% Weed Control, Goosegrass (Goosegrass [4]; 2.0 lb/A): 100%
% Weed Control, Redroot Pigweed (Redroot Pigweed; 0.25 lb/A): 65%
% Weed Control, Redroot Pigweed (Redroot Pigweed; 0.5 lb/A): 89%
% Weed Control, Redroot Pigweed (Redroot Pigweed; 1.0 lb/A): 100%
% Weed Control, Redroot Pigweed (Redroot Pigweed; 2.0 lb/A): 100%
% Weed Control, Giant Foxtail (Giant Foxtail; 0.25 lb/A): 47%
% Weed Control, Giant Foxtail (Giant Foxtail; 0.5 lb/A): 78%
% Weed Control, Giant Foxtail (Giant Foxtail; 1.0 lb/A): 97%
% Weed Control, Giant Foxtail (Giant Foxtail; 2.0 lb/A): 100%
% Weed Control, Common Lambsquarter (Common Lambsquarter; 0.25 lb/A): 95%
% Weed Control, Common Lambsquarter (Common Lambsquarter; 0.5 lb/A): 98%
% Weed Control, Common Lambsquarter (Common Lambsquarter; 1.0 lb/A): 100%
% Weed Control, Common Lambsquarter (Common Lambsquarter; 2.0 lb/A): 100%
% Weed Kill, Goosegrass (Goosegrass [5]; 0.25 lb/A): 82%
% Weed Kill, Goosegrass (Goosegrass [5]; 0.5 lb/A): 100%
% Weed Kill, Goosegrass (Goosegrass [5]; 1.0 lb/A): 100%
% Weed Kill, Goosegrass (Goosegrass [5]; 2.0 lb/A): 100%
mortality at 280.212 g/ha (Yellow Foxtail [6]; 0.25 lb/A): 82%
mortality at 560.425 g/ha (Yellow Foxtail [6]; 0.5 lb/A): 97%
mortality at 1120.85 g/ha (Yellow Foxtail [6]; 1.0 lb/A): 100%
mortality at 2241.7 g/ha (Yellow Foxtail [6]; 2.0 lb/A): 100%
% Crop Kill, Corn (Corn; 0.5 lb/A): 0%
% Crop Kill, Corn (Corn; 1.0 lb/A): 3%
% Crop Kill, Corn (Corn; 2.0 lb/A): 12%
